Laboratory results taken from patent US20060040255A1, “Cell line designated KT-1 established from tongue epithelial and use thereof” (National Food Research Institute, priority 2003, published 2006).

What was measured:
[1] = target: sweet taste receptors T1r2 and T1r3 (Mus musculus, UniProt Q925D8+Q925I4); settings: KT-1C cells; final concentration 5 mM; 0.5 minutes after addition
Method: KT-1C cells which had been washed twice in PBS(−) were incubated for 30 minutes at room temperature with 1 ml of imaging buffer (NaHCO3 22 mM, KCl 5 mM, NaH2PO4 1.25 mM, glucose 10 mM, NaCl 124 mM) to which 5 μl of Fura-2-AM (1 mM dissolved in DMSO, Molecular Probe) and 5 μl of Cremophor (Nacalai Tesque) had been added, incorporating Fura-2-AM into the cells. They were then washed twice with imaging buffer to remove any Fura-2-AM that had not been incorporated into the cells.
Next the dish was filled with 1 ml of imaging buffer to which 1 mM MgCl2 and 2 mM CaCl2 had been added, and the artificial sweetener Acesul fame K (Fluka), which is known to be a ligand for sweet taste receptors T1r2 and T1r3, was added to a final concentration of 5 mM. […] After measurement, changes over time in florescence in the various cells were converted to changes in calcium concentration by the AquaCosmos software, and graphed.

[2] = target: salt sensing channel αENaC (Mus musculus, UniProt Q61180); settings: KT-1C cells
Method: Next they were washed twice with Na imaging buffer to remove any CoroNa-Red that had not been incorporated into the cells.
Next, the dish was filled with 1 mL of imaging buffer to which 1 mM MgCl2 and 2 mM CaCl2 had been added, and NaCl, which is known to be a salt taste channel ligand, was then added thereto to a final concentration of 50 mM. It is known that when cells with salt taste response ability (in other words, cells in which the salt sensing channel αENaC is functionally expressed) respond to NaCl (salty substance), sodium flows into the cytoplasm, and the concentration of sodium in the cytoplasm rises. Therefore, the fluorescence (580 nm) produced by CoroNa-Red when sodium flowed into the cytoplasm due to addition of NaCl was measured over time using an inverted fluorescence microscope (Leica, DMRIB) equipped with a CCD camera (Hamamatsu Photonics) controlled by AquaCosmos software (Hamamatsu Photonics). After measurement, changes over time inflorescence in the various cells were converted to changes in sodium concentration using the AquaCosmos software, and graphed.

salt taste channel αENaC = assay: Hormone regulation of αENaC expression in cell line KT-1B (RT-PCR); assay type: cell-based, mouse; settings: cell line KT-1B treated for 6 days; aldosterone 1 μM, hydrocortisone 0.2 μM; compared with progesterone 0.1 μM
Method: While being cultured in the presence of hydrocortisone, cell line KT-1B constantly expresses the amiloride-sensitive sodium channel alpha subunit (αENaC), which might be involved in salt taste response.
Therefore, cell line KT-1B was treated for 6 days with the hormone progesterone (0.1 μM), aldosterone (1 μM) or hydrocortisone (0.2 μM), and expression of the salt sensing channel αENaC was investigated.
RNA was extracted with Trizol solution from the treated cell line KT-1B, and cDNA was synthesized on a scale of 40 μl using the resulting 2 μg of RNA and a Super Script First Strand cDNA synthesis kit. Using 1 μl of this cDNA as the template and primers specific to salt taste channel αENaC (0.2 μM each, Seq. Nos. 13 and 14), 2.5 units of Takara Taq were added and a PCR reaction consisting of denaturation at 95° C. for 5 minutes followed by 35 cycles of 1 minute at 95° C., 1 minute at 58° C. and 2 minutes at 72° C. was performed in a 25 μl system. 8 μl of the PCR reaction liquid was electrophoresed on a 1.5% agarose gel, stained with ethidium bromide and photographed.

Chain of salt sensing channel αENaC (Q61180 whole entry): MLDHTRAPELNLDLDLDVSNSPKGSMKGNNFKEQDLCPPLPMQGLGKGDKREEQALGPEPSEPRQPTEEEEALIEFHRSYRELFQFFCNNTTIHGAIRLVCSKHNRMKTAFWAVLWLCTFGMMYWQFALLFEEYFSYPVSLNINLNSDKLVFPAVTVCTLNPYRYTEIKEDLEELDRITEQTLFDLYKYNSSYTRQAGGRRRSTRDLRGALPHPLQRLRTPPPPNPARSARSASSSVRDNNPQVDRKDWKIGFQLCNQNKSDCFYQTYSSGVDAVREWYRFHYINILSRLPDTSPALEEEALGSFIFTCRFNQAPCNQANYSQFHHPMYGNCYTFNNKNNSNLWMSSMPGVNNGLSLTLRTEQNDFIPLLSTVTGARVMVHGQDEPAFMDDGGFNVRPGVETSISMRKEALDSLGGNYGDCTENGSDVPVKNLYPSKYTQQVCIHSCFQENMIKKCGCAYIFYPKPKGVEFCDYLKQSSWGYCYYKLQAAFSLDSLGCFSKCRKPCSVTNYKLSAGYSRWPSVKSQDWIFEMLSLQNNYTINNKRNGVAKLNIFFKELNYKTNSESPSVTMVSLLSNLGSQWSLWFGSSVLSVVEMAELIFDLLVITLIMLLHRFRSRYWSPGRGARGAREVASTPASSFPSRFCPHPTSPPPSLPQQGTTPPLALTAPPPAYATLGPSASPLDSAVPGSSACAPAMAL
Chain of sweet taste receptors T1r2 and T1r3 (Q925I4 20-843): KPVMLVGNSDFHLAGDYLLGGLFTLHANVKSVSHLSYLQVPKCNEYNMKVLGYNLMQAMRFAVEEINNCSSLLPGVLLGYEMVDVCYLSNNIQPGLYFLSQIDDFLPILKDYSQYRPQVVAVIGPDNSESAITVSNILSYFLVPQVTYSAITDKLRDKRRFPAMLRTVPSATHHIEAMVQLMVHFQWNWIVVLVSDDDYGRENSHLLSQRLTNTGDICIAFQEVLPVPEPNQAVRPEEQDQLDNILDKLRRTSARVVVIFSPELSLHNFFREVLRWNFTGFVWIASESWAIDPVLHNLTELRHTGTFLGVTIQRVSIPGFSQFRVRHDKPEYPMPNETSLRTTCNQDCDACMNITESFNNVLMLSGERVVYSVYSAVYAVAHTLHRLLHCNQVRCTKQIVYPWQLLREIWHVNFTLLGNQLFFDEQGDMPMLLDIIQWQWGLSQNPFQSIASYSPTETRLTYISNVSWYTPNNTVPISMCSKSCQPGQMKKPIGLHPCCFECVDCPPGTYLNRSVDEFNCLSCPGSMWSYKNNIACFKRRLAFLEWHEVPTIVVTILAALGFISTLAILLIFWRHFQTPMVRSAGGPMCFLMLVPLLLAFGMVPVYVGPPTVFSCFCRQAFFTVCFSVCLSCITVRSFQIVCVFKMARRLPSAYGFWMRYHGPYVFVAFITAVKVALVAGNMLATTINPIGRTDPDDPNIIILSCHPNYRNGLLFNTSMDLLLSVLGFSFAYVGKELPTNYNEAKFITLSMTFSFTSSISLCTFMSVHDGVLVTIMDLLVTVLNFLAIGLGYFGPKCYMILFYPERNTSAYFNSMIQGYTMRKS
Chain of sweet taste receptors T1r2 and T1r3 (Q925D8 21-858): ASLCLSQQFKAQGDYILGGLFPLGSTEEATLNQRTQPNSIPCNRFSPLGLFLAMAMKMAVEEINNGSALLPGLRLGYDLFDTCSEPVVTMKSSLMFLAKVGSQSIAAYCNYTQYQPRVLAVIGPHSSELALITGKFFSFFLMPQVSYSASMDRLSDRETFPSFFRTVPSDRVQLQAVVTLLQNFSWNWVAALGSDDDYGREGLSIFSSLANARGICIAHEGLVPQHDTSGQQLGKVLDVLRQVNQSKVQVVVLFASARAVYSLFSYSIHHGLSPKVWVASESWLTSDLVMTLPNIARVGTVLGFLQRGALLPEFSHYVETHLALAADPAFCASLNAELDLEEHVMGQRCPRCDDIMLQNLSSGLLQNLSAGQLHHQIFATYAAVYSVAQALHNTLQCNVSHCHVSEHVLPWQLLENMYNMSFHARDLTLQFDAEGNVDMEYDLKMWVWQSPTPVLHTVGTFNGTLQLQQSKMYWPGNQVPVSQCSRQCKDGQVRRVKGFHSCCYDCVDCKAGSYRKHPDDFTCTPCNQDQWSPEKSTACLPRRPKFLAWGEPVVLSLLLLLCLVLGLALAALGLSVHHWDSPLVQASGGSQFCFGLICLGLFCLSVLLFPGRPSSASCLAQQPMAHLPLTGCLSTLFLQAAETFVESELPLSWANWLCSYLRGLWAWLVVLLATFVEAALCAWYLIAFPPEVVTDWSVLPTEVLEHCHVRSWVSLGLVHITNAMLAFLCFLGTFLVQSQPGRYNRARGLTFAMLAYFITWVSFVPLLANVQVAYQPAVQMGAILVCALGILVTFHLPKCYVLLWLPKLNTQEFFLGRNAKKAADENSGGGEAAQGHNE

CC1=CC(=O)[N-]S(=O)(=O)O1.[K+] [Acesulfame K]
intercellular calcium concentration (Fura-2 fluorescence) after addition [1]: rise in intercellular calcium concentration

[Cl-].[Na+] [NaCl]
dependence of intercellular sodium concentration on added concentration ([2]; 50 mM then 150 mM added): affected by the concentration of added NaCl
intercellular sodium concentration (CoroNa-Red fluorescence) after addition ([2]; final concentration 50 mM, 0.5 minutes after addition): rise in intercellular sodium concentration

C[C@]12CCC(=O)C=C1CC[C@@H]1[C@@H]2[C@@H](O)C[C@]2(C=O)[C@@H](C(=O)CO)CC[C@@H]12 [aldosterone]
amount of expression of the salt taste channel αENaC (mRNA, RT-PCR) (salt taste channel αENaC): greater

C[C@]12CCC(=O)C=C1CC[C@@H]1[C@@H]2[C@@H](O)C[C@@]2(C)[C@H]1CC[C@]2(O)C(=O)CO [hydrocortisone]
amount of expression of the salt taste channel αENaC (mRNA, RT-PCR) (salt taste channel αENaC): greater
